Read-outs that look alike come from different tables or passages of the source.
Test system: HCMV
Assay type: cell-based
Procedure: In example herpesvirus PRM assay methods shown herein, cell pellets were lysed in 2% SDS, 100 mM NaCl, 0.5 mM EDTA, 50 mM Tris, pH 8.2, and 50 μg of protein was reduced and alkylated with 25 mM TCEP and 50 mM CAM respectively for 20 min at 70° C. Proteins were then precipitated via methanol chloroform precipitation (Wessel & Flugg, Anal Biochem. 138(1):141-143, 1984), resuspended in 50 mM HEPES, pH 8.2 and digested overnight with trypsin (50:1 protein:enzyme w/w ratio). Digested peptides were desalted by SDB-RPS StageTip as previously described (Lum et al., Cell Syst., 7(6):[…], 2018; Greco et al., Methods Mol Biol 1410:39-63, 2016; Federspiel & Cristea, Methods Mol Biol., 1977:115-143, 2019).
Peptides (1.0 μg on column) were analyzed by LC-MS/MS using a Dionex Ultimate 3000 UHPLC coupled online to an EASYSpray ion source and a Q Exactive HF. Peptides were separated on an EASYSpray C18 column (75 μm×25 cm) heated to 50° C. using a linear gradient of 5% B to 32% B over 60 min at a flow rate of 250 nL/min and were ionized at 1.7 kv. Mobile phase A consisted of 0.1% FA in H2O and mobile phase B consisted of 0.1% FA, 2.9% H2O in ACN.
The PRM method was controlled by a peptide inclusion list with retention time windows of 6 min for selected precursor ions.
The PRM assay was developed and analyzed using the open-source software Skyline (Maclean et al., Bioinformatics 26(7):966-968, 2010). Summed area under the curve of 3-4 transitions per peptide was used for quantitation. Targeted peptides were normalized to host protein loading control peptides. Peptide values for each sample were scaled to the average of each peptide across all runs. The average of multiple peptides was used as the inferred value for the protein measurement when more than one peptide was quantified (Federspiel et al., PLoS Biol. 17(9):e3000437. Doi: 10.1371/journal.pbio.3000437). PRM quantitation data were graphed using the Python Seaborn and Matplotlib libraries.
MRC5 primary human fibroblasts (HFs) (ATCC CCL-171) were used as the model system for HSV-1 and HCMV infections and were cultured in complete growth medium (DMEM supplemented with 10% fetal bovine serum and 1% penicillin-streptomycin antibiotics) at 37° C. and 5% CO2. iSLK.219 cells harboring latent KSHV (a gift from Dr. Britt Glaunsinger, University of California, Berkeley) were grown in complete growth medium supplemented with 500 μg/ml hygromycin (ThermoFisher Scientific, 10687010) at 37° C. and 5% CO2. All cells were used for experiments within a maximum of 10 passages.
Wild type HSV-1 strain 17+ (a gift from Beate Sodeik, Hannover Medical School, Hannover, Germany) was propagated as previously described (Diner et al., 2015). Briefly, PO stocks were generated by electroporating pBAC-HSV-1 into U-2 OS cells. […] In a similar manner, wild type HCMV strain AD169 was produced from BAC electroporation into HFs and working stocks were propagated by infecting HFs at a low level. In both cases, cell-associated virus was released by sonication, combined with supernatant virus, then concentrated by ultracentrifugation (20,000 rpm, 2 hours, 4° C. with SW28 swinging bucket rotor [Beckman Coulter]) over a 10% ficoll (HSV-1) or 20% sorbitol (HCMV) cushion. Virus stock titers were determined by plaque assay for HSV-1 or tissue culture infectious dose (TCID50) for HCMV and infections were performed at a multiplicity of infection (MOI) of 3.
12 hours prior to virus infection or reactivation, cells were treated with either the small molecule drug or DMSO/PBS control at an equivalent volume. […] For infection cycles lasting longer than 24 hours, small molecule drugs were re-added to the cell culture medium every 24 hours. Upon collection, cells were rinsed with PBS, scraped into a microcentrifuge tube, pelleted by centrifugation, and rinsed again with PBS.

For `Nc1c(S(=O)(=O)c2ccccc2)c2nc3ccccc3nc2n1-c1ccc(F)cc1` [CAY10602], the “UL117 (P16770) protein level” value (timepoint 96, L) was 0.3951, the “gH (P12824) protein level” value (timepoint 96, L) was 0.2835 and the “gL (P16832) protein level” value (timepoint 96, L) was 0.2623. The “gM (P16733) protein level” value (timepoint 96, L) was 0.2653, the “gN (P16795) protein level” value (timepoint 96, L) was 0.3 and the “IR10 (P16808) protein level” value (timepoint 96, LL) was 0.2057. For the same compound, the “IR12 (P16810) protein level” value (timepoint 96, LL) was 0.691, the “TRM3 (P16732) protein level” value (timepoint 96, LL) was 0.1638 and the “TRX1 (P16783) protein level” value (timepoint 96, LL) was 0.107. The “TRX2 (P16728) protein level” value (timepoint 96, LL) was 0.1423, the “UL24 (P16760) protein level” value (timepoint 96, LL) was 0.2363 and the “UL40 (P16780) protein level” value (timepoint 96, LL) was 0.5384. The “UL47 (P16784) protein level” value (timepoint 96, LL) was 0.2331, the “UL49 (P16786) protein level” value (timepoint 96, LL) was 0.2651 and the “UL69 (P16749) protein level” value (timepoint 96, LL) was 0.3508. The “UL70 (P17149) protein level” value (timepoint 96, LL) was 0.6104, the “UL83 (P06725) protein level” value (timepoint 96, LL) was 0.1002 and the “UL132 (P69338) protein level” value (timepoint 96, LL) was 0.23. For the same compound, the “US15 (P09718) protein level” value (timepoint 96, LL) was 0.4576, the “CVC2 (P16726) protein level” value (timepoint 120, DE) was 0.2864 and the “DBP (P17147) protein level” value (timepoint 120, DE) was 1.237. For the same compound, the “HELI (P16736) protein level” value (timepoint 120, DE) was 0.9924, the “IR01 (P09710) protein level” value (timepoint 120, DE) was 0.5584 and the “NEC1 (P16794) protein level” value (timepoint 120, DE) was 0.2446. The “NEC2 (P16791) protein level” value (timepoint 120, DE) was 0.5195, the “RIR1 (P16782) protein level” value (timepoint 120, DE) was 0.4577 and the “TRM1 (P16724) protein level” value (timepoint 120, DE) was 0.5809. For the same compound, the “UL4 (P17146) protein level” value (timepoint 120, DE) was 0.3635, the “UL26 (P16762) protein level” value (timepoint 120, DE) was 0.7327 and the “UL32 (P08318) protein level” value (timepoint 120, DE) was 0.3617. For the same compound, the “UL34 (P16812) protein level” value (timepoint 120, DE) was 0.476, the “UL35 (P16766) protein level” value (timepoint 120, DE) was 0.2648 and the “UL38 (P16779) protein level” value (timepoint 120, DE) was 0.7917. The “UL44 (P16790) protein level” value (timepoint 120, DE) was 0.3691, the “UL48 (P16785) protein level” value (timepoint 120, DE) was 0.6239 and the “UL54 (P08546) protein level” value (timepoint 120, DE) was 1.076. The “UL71 (P16823) protein level” value (timepoint 120, DE) was 0.6451, the “UL78 (P16751) protein level” value (timepoint 120, DE) was 0.6099 and the “UL84 (P16727) protein level” value (timepoint 120, DE) was 0.5628. The “UL95 (P16801) protein level” value (timepoint 120, DE) was 0.6017, the “UL96 (P16787) protein level” value (timepoint 120, DE) was 0.8056 and the “UL97 (P16788) protein level” value (timepoint 120, DE) was 0.6064. For the same compound, the “UL98 (P16789) protein level” value (timepoint 120, DE) was 0.7315, the “UL102 (P16827) protein level” value (timepoint 120, DE) was 1.128 and the “UL104 (P16735) protein level” value (timepoint 120, DE) was 0.5969. The “UL112/UL113 (P17151) protein level” value (timepoint 120, DE) was 0.6787, the “UL114 (P16769) protein level” value (timepoint 120, DE) was 0.9011 and the “UL119/UL118 (P16739) protein level” value (timepoint 120, DE) was 0.9064. For the same compound, the “UL128 (P16837) protein level” value (timepoint 120, DE) was 0.537, the “US8 (P09730) protein level” value (timepoint 120, DE) was 0.7858 and the “US9 (P09729) protein level” value (timepoint 120, DE) was 0.8529. For the same compound, the “US12 (P09721) protein level” value (timepoint 120, DE) was 0.4687, the “US13 (P09720) protein level” value (timepoint 120, DE) was 0.889 and the “US14 (P09719) protein level” value (timepoint 120, DE) was 0.6652. The “US18 (P69334) protein level” value (timepoint 120, DE) was 1.01, the “US22 (P09722) protein level” value (timepoint 120, DE) was 0.7763 and the “US23 (P09701) protein level” value (timepoint 120, DE) was 0.7758. The “US24 (P09700) protein level” value (timepoint 120, DE) was 0.8183, the “US34 (P09709) protein level” value (timepoint 120, DE) was 0.4168 and the “gB (P06473) protein level” value (timepoint 120, DE) was 0.6582. The “IRS1 (P09715) protein level” value (timepoint 120, IE) was 0.8786, the “TRS1 (P09695) protein level” value (timepoint 120, IE) was 0.7933 and the “UL13 (P16755) protein level” value (timepoint 120, IE) was 0.4263. The “UL36 (P16767) protein level” value (timepoint 120, IE) was 0.8112, the “UL37 (P16778) protein level” value (timepoint 120, IE) was 0.8715 and the “UL122 (P19893) protein level” value (timepoint 120, IE) was 0.4332. The “UL123 (P13202) protein level” value (timepoint 120, IE) was 0.6795, the “CVC1 (P16799) protein level” value (timepoint 120, L) was 0.5173 and the “GO (P16750) protein level” value (timepoint 120, L) was 0.4236. The “IR11 (P16809) protein level” value (timepoint 120, L) was 1.205, the “MCP (P16729) protein level” value (timepoint 120, L) was 0.4497 and the “SCP (Q7M6N6) protein level” value (timepoint 120, L) was 0.3169. The “TRM2 (P16792) protein level” value (timepoint 120, L) was 0.4883, the “UL22A (P16845) protein level” value (timepoint 120, L) was 0.9462 and the “UL25 (P16761) protein level” value (timepoint 120, L) was 0.5081. The “UL29 (P16764) protein level” value (timepoint 120, L) was 0.8148, the “UL30 (P16765) protein level” value (timepoint 120, L) was 0.4064 and the “UL31 (P16848) protein level” value (timepoint 120, L) was 0.5275. The “UL43 (P16781) protein level” value (timepoint 120, L) was 0.2294, the “UL52 (P16793) protein level” value (timepoint 120, L) was 0.6161 and the “UL76 (P16725) protein level” value (timepoint 120, L) was 0.366. For the same compound, the “UL79 (P16752) protein level” value (timepoint 120, L) was 0.3998, the “UL80 (P16753) protein level” value (timepoint 120, L) was 0.5912 and the “UL82 (P06726) protein level” value (timepoint 120, L) was 0.5561. For the same compound, the “UL87 (P16730) protein level” value (timepoint 120, L) was 0.3281, the “UL88 (P16731) protein level” value (timepoint 120, L) was 0.6339 and the “UL94 (P16800) protein level” value (timepoint 120, L) was 0.5803. The “UL99 (P13200) protein level” value (timepoint 120, L) was 0.4749, the “UL103 (P16734) protein level” value (timepoint 120, L) was 0.5208 and the “UL117 (P16770) protein level” value (timepoint 120, L) was 0.5442. The “gH (P12824) protein level” value (timepoint 120, L) was 0.5849, the “gL (P16832) protein level” value (timepoint 120, L) was 0.5768 and the “gM (P16733) protein level” value (timepoint 120, L) was 0.6508. For the same compound, the “gN (P16795) protein level” value (timepoint 120, L) was 0.6429, the “DUT (P16824) protein level” value (timepoint 120, LL) was 0.5447 and the “IR10 (P16808) protein level” value (timepoint 120, LL) was 0.4495. For the same compound, the “IR12 (P16810) protein level” value (timepoint 120, LL) was 0.797, the “TRM3 (P16732) protein level” value (timepoint 120, LL) was 0.383 and the “TRX1 (P16783) protein level” value (timepoint 120, LL) was 0.3398. The “TRX2 (P16728) protein level” value (timepoint 120, LL) was 0.4401, the “UL24 (P16760) protein level” value (timepoint 120, LL) was 0.5907 and the “UL40 (P16780) protein level” value (timepoint 120, LL) was 0.5612. For the same compound, the “UL47 (P16784) protein level” value (timepoint 120, LL) was 0.5287, the “UL49 (P16786) protein level” value (timepoint 120, LL) was 0.5619 and the “UL69 (P16749) protein level” value (timepoint 120, LL) was 0.6101. For the same compound, the “UL70 (P17149) protein level” value (timepoint 120, LL) was 0.846, the “UL83 (P06725) protein level” value (timepoint 120, LL) was 0.4091 and the “UL132 (P69338) protein level” value (timepoint 120, LL) was 0.4011. The “US15 (P09718) protein level” value (timepoint 120, LL) was 0.6187.

Source: patent US20240027453A1, “METHOD FOR DETECTION AND QUANTITATIVE MONITORING OF INFECTIONS WITH HERPESVIRUSES” (The Trustees of Princeton University, priority 2020, published 2024)
